Measurements reported in patent US10266526B2, “Substituted 1,2,3-triazoles as SMYD inhibitors for treating cancer” (EPIZYME, INC., priority 2014, dated 2019).

Target: SMYD3 (Homo sapiens (Human), UniProt Q9H7B4)
Test: SMYD3 biochemical assay (SMYD3 enzyme assay on MEKK2 protein substrate, 3H-SAM scintillation proximity assay)
Conditions: read-out: SMYD3 Biochem IC50
Summary of the method: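 Native full-length human SMYD3, expressed in E. coli, was preincubated with compound for 30 min at room temperature in 25 mM Tris-Cl pH 8.0, 1 mM TCEP, 0.005% BSG and 0.005% Tween 20. ³H-SAM plus GST-MEKK2 then started the reaction. It was stopped with unlabeled SAM (100 uM final), and methylated MEKK2 was read by SPA.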

Chain of SMYD3 (Q9H7B4 whole entry): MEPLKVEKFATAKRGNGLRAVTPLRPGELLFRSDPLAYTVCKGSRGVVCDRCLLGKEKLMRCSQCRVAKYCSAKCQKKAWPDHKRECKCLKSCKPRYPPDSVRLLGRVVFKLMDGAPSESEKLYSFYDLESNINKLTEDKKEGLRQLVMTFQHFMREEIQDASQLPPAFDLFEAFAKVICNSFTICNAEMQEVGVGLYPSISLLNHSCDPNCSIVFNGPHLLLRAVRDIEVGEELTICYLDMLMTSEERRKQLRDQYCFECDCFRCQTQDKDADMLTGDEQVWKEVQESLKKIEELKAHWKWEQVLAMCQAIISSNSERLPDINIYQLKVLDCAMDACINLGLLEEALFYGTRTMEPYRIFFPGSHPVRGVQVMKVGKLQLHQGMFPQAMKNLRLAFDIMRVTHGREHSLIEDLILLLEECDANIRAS

| Structure (SMILES) | IC50 [µM] |
| --- | --- |
| NCCC(=O)N[C@H]1CC[C@H](NC(=O)Cc2c[nH]c3cccnc23)CC1 [compound 407, N-((1r,4r)-4-(2-(1H-pyrrolo[3,2-b]pyridin-3-yl)acetamido)cyclohexyl)-3-aminopropanamide] | > 100 |
| N[C@H]1CC[C@H](NC(=O)Cc2c[nH]c3cccnc23)CC1 [compound 408, N-((1r,4r)-4-aminocyclohexyl)-2-(1H-pyrrolo[3,2-b]pyridin-3-yl)acetamide] | > 100 |
| N[C@H]1CC[C@H](NC(=O)c2cccnc2O)CC1 [compound 411, N-((1r,4r)-4-aminocyclohexyl)-2-hydroxynicotinamide] | > 100 |
| Cn1ccnc1C(=O)N[C@H]1CC[C@H](NC(=O)CCN)CC1 [compound 412, N-((1r,4r)-4-(3-aminopropanamido)cyclohexyl)-1-methyl-1H-imidazole-2-carboxamide] | > 100 |
| CC(NC(=O)c1ccnn1C)C1CCN(C(=O)[C@H](C)N)CC1 (stereo partly drawn) [compound 413, N-(l-(1-(L-alanyl)piperidin-4-yl)ethyl)-1-methyl-1H-pyrazole-5-carboxamide] | > 100 |
| Cn1nccc1C(=O)N[C@H]1CC[C@H](NC(=O)CCN)CC1 [compound 414, N-((1r,4r)-4-(3-aminopropanamido)cyclohexyl)-1-methyl-1H-pyrazole-5-carboxamide] | > 100 |
| Cn1nccc1C(=O)N[C@H]1CC[C@H](N)CC1 [compound 415, N-((1r,4r)-4-aminocyclohexyl)-1-methyl-1H-pyrazole-5-carboxamide] | > 100 |
| NCCC(=O)N[C@H]1CC[C@H](NC(=O)C2C[C@@H]3C=C[C@H]2C3)CC1 (stereo partly drawn) [compound 416, (1R,4R)-N-((1r,4R)-4-(3-aminopropanamido)cyclohexyl)bicyclo[2.2.1]hept-5-ene-2-carboxamide] | > 100 |
| N[C@H]1CC[C@H](NC(=O)C2C[C@@H]3C=C[C@H]2C3)CC1 (stereo partly drawn) [compound 417, (1r,4r)-N-((1r,4R)-4-aminocyclohexyl)bicyclo[2.2.1]hept-5-ene-2-carboxamide] | > 100 |
| CC(NC(=O)c1cccc(N)n1)C1CCN(C(=O)[C@H](C)N)CC1 (stereo partly drawn) [compound 418, N-(1-(1-(L-alanyl)piperidin-4-yl)ethyl)-6-aminopicolinamide] | > 100 |
| CC(NC(=O)c1cncnc1N)C1CCN(C(=O)[C@H](C)N)CC1 (stereo partly drawn) [compound 419, N-(1-(1-(L-alanyl)piperidin-4-yl)ethyl)-4-aminopyrimidine-5-carboxamide] | > 100 |
| NCCC(=O)N[C@H]1CC[C@H](NC(=O)c2cncnc2N)CC1 [compound 420, 4-amino-N-((1r,4r)-4-(3-aminopropanamido)cyclohexyl)pyrimidine-5-carboxamide] | > 100 |
| Nc1ncncc1C(=O)N[C@H]1CC[C@H](N)CC1 [compound 421, 4-amino-N-((1r,4r)-4-aminocyclohexyl)pyrimidine-5-carboxamide] | > 100 |
| NCCC(=O)N[C@H]1CC[C@H](NC(=O)c2cccc(F)n2)CC1 [compound 422, N-((1r,4r)-4-(3-aminopropanamido)cyclohexyl)-6-fluoropicolinamide] | > 100 |
| N[C@H]1CC[C@H](NC(=O)c2ccc(O)cn2)CC1 [compound 423, N-((1r,4r)-4-aminocyclohexyl)-5-hydroxypicolinamide] | > 100 |
| N[C@H]1CC[C@H](NC(=O)C2=NNC(=O)CC2)CC1 [compound 424, N-((1r,4r)-4-aminocyclohexyl)-6-oxo-1,4,5,6-tetrahydropyridazine-3-carboxamide] | > 100 |
| N[C@H]1CC[C@H](NC(=O)Cn2ccnc2)CC1 [compound 426, N-((1r,4r)-4-aminocyclohexyl)-2-(1H-imidazol-1-yl)acetamide] | > 100 |
| NCCC(=O)N[C@H]1CC[C@H](NC(=O)c2nc3ccccc3s2)CC1 [compound 427, N-((1r,4r)-4-(3-aminopropanamido)cyclohexyl)benzo[d]thiazole-2-carboxamide] | > 100 |
| NCCC(=O)N[C@H]1CC[C@H](NC(=O)c2cccc3c2CC(=O)N3)CC1 [compound 430, N-((1r,4r)-4-(3-aminopropanamido)cyclohexyl)-2-oxoindoline-4-carboxamide] | > 100 |
| Cc1nn(C(C)C(=O)N[C@H]2CC[C@H](NC(=O)CCN)CC2)c(C)c1Br (some centres unmarked) [compound 431, 3-amino-N-((1r,4r)-4-(2-(4-bromo-3,5-dimethyl-1H-pyrazol-1-yl)propanamido)cyclohexyl)propanamide] | > 100 |
| NCCC(=O)N[C@H]1CC[C@H](NC(=O)[C@H]2C[C@H](O)CN2)CC1 [compound 434, (2R,4S)-N-((1r,4r)-4-(3-aminopropanamido)cyclohexyl)-4-hydroxypyrrolidine-2-carboxamide] | > 100 |

Results, then the compound that gave them:

| IC50 [µM] | Structure (SMILES) |
| --- | --- |
| > 100 | CC1=NN(c2ccc(C(=O)N[C@H]3CC[C@H](N)CC3)cc2)C(=O)C1 [compound 403, N-((1r,4r)-4-aminocyclohexyl)-4-(3-methyl-5-oxo-4,5-dihydro-1H-pyrazol-1-yl)benzamide] |
| > 100 | NCCC(=O)N[C@H]1CC[C@H](NC(=O)c2cc(O)c3ccccc3n2)CC1 [compound 404, N-((1r,4r)-4-(3-aminopropanamido)cyclohexyl)-4-hydroxyquinoline-2-carboxamide] |
| > 100 | N[C@H]1CC[C@H](NC(=O)c2cnc3ccccc3n2)CC1 [compound 405, N-((1r,4r)-4-aminocyclohexyl)quinoxaline-2-carboxamide] |
| > 100 | CC(NC(=O)Cc1c[nH]c2cccnc12)C1CCN(C(=O)[C@H](C)N)CC1 (stereo partly drawn) [compound 406, N-(1-(1-(L-alanyl)piperidin-4-yl)ethyl)-2-(1H-pyrrolo[3,2-b]pyridin-3-yl)acetamide] |
| 70.4 | CC(NC(=O)c1cccnc1O)C1CCN(C(=O)[C@H](C)N)CC1 (stereo partly drawn) [compound 409, N-(1-(1-(L-alanyl)piperidin-4-yl)ethyl)-2-hydroxynicotinamide] |
| 44.5 | NCCC(=O)N[C@H]1CC[C@H](NC(=O)c2cccnc2O)CC1 [compound 410, N-((1r,4r)-4-(3-aminopropanamido)cyclohexyl)-2-hydroxynicotinamide] |
| 37.5 | NCCC(=O)N[C@H]1CC[C@H](NC(=O)c2n[nH]c3ccccc23)CC1 [compound 425, N-((1r,4r)-4-(3-aminopropanamido)cyclohexyl)-1H-indazole-3-carboxamide] |
| 30.6 | N[C@H]1CC[C@H](C(=O)Nc2ccc3c(c2)CC(=O)N3)CC1 [compound 428, (1r,4r)-4-amino-N-(2-oxoindolin-5-yl)cyclohexane-1-carboxamide] |
| 14.5 | N[C@H]1CC[C@H](NS(=O)(=O)c2ccc3c(c2)CC(=O)N3)CC1 [compound 429, N-((1r,4r)-4-aminocyclohexyl)-2-oxoindoline-5-sulfonamide] |
| 37 | CC1=NN(c2ccc(C(=O)N[C@H]3CC[C@H](NC(=O)CCN)CC3)cc2)C(=O)C1 [compound 432, N-((1r,4r)-4-(3-aminopropanamido)cyclohexyl)-4-(3-methyl-5-oxo-4,5-dihydro-1H-pyrazol-1-yl)benzamide] |
| 45.6 | CC(NC(=O)[C@H]1C[C@H](O)CN1)C1CCN(C(=O)[C@H](C)N)CC1 (stereo partly drawn) [compound 433, (2R,4S)-N-(1-(1-(L-alanyl)piperidin-4-yl)ethyl)-4-hydroxypyrrolidine-2-carboxamide] |
